Structures are written as SMILES.

Assay [1] in a line: In vitro antiviral activity against HIV-1 Reverse transcriptase wild type.
The nature of assay [2]: In vitro antiviral activity against HIV-1 Reverse transcriptase M184V mutant.

As for `Cc1cn([C@H]2C=C[C@@H](CO)O2)c(=O)[nH]c1=O` [2',3'-didehydro-3'-deoxythymidine], the EC50 came to 450 nM in assay [1] and 500 nM in assay [2].

For the compound `Nc1nc(=O)n([C@@H]2C=C[C@H](CO)O2)cc1F` [ACH-126443], the EC50 in assay [1] was determined as 180 nM; in assay [2] it was 140 nM.

In the case of `Nc1ccn([C@@H]2CS[C@H](CO)O2)c(=O)n1` [Epivir], the EC50 in assay [1] is 42 nM; in assay [2] it was over 50000 nM.

By EC50 is commonly meant the concentration needed to bring the measured effect to its halfway point.

These data come from BindingDB's records for doi:10.1016/s0960-894x(03)00330-5 (The University of Georgia, 2003).
